The values that follow come from patent publication US20060110385A1, “Means and methods for diagnosing and treating affective disorders” (Affectis Pharmaceuticals AG, priority 2003, published 2006).

The target of data set [1] is T1, P2X7R (Mus musculus, UniProt Q9Z1M0).
T1 construct: endogenous in cells; host or cells: HT-22 (immortalised mouse hippocampal cell line)
T1 sequence (Q9Z1M0 1-595): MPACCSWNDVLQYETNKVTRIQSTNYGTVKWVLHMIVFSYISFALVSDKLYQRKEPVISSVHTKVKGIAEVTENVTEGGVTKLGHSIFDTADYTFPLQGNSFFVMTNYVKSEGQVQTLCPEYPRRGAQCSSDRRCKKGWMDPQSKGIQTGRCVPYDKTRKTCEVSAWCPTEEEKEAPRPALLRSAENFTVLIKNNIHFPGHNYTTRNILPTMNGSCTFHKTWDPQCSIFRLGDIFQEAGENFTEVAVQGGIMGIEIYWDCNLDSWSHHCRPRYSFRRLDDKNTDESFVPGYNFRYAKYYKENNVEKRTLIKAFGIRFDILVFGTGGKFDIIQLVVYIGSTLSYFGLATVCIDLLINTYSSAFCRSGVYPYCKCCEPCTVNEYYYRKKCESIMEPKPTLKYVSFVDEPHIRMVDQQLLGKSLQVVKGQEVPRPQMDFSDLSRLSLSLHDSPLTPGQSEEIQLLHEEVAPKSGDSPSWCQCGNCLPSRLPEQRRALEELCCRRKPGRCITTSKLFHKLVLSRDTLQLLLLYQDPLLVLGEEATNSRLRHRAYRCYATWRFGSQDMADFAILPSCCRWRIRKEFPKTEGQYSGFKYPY
The data set can be described thus: Entry of ethidium bromide into HT-22 cells. Type of data set: cell-based. The conditions noted are these: pre-incubation 60 minutes with 100 μM o-ATP before agonist and ethidium bromide. From the text: Yet another method of measuring P2X7R activity involves the entry of ethidium bromide into P2X7R expressing cells. Activation of P2X7R by an agonist allows the entry of ethidium bromide which binds nuclear DNA and emits a fluorescence signal. Alternatively, the propidium dye YOPRO-1 can be substituted for ethidium bromide. An increase in fluorescence can be used as a measure of P2X7 receptor activation. Therefore, the assay can be used to test and quantify the effect of an agent or compound with agonist properties on P2X7R. In the present example, 10^3 HT-22 cells were seeded per well in a 96-well flat bottom microtitre plates and incubated at 37° C./5% CO2 in DMEM medium containing 10% FCS until the cells attached to the culture surface. […] The number of fluorescent cells which have integrated the ethidium bromide to the DNA can then be counted using a fluorescent microscope (Zeiss, Germany). […] Alternatively, ethidium bromide fluorescence can be measured using a Perkin-Elmer fluorescent plate reader (excitation 520 nm, emission 595 nm, slit widths: Ex 15 nm, Em 20 nm). From the readings obtained, a pIC50 figure can be calculated for each candidate agent or compound. […] The specificity of an agonist for P2X7R can be evaluated by pre-incubation of the cells for 60 minutes with 100 μM o-ATP before adding the agonist and ethidium bromide dye.

A further data set has as its system mice. Kind of data set: Open field test (locomotor activity) after oATP. The conditions noted are these: 10 μM or 50 μM oATP, 15 minutes after injection, 30 minutes. Type of data set: in vivo, mouse.
The next data set relates to DBA/201a mice. The data set can be described thus: Porsolt's forced swim test after intrahippocampal P2X7R antagonists. The class given is in vivo, mouse. The following applies: 100 nM KN-62 or 10 μM oATP, 1 μl each side, dentate gyrus, 24 hours after injection. From the text:
In the present example, the P2X7R antagonists were directly injected into the dentate gyrus region of the hippocampus. Briefly, three months old male mice were bilaterally implanted with guide cannulae (23 gauge, length 8 mm) by means of a stereotactic instrument (David Kopf Instruments). The coordinates, in relation to bregma, were −1.5 mm posterior, ±1.0 mm lateral, and −0.8 mm ventral. Mice were allowed to recover for 10 to 13 days after surgery. Following this recovery period, mice were injected with 1 μl vehicle solution (0.01% DMSO, Sigma), or 100 nM KN-62 (Sigma, prepared in 0.01% DMSO), or 10 μM oATP (Sigma, prepared in PBS) in each side of the brain over a period of 60 seconds. All injections were performed using a 9 mm-31 gauge needle inserted into the guide cannulae and connected via tubing to a 10 μl Hamilton syringe.
The behaviour of individual mice was assessed using the Porsolt's forced swim test 24 hours after injection of vehicle solution, KN-62, or oATP. A pre-exposure of 5 minutes to the test was performed 15-17 minutes after administration of vehicle, KN-62, or oATP. A description of the Porsolt's forced swim test is given in example 9. […] Observed results were verified statistically using one-way MANOVA test.

The target in data set [2] is T1, P2X7R. Kind of data set: Calcium influx into HT-22 cells (Oregon green AM ester). The conditions noted are these: 100 mM oATP for 1 hour before BzATP. The class given is cell-based. From the text: Since P2X7R is an ATP-gated ion channel which allows the entry of calcium and sodium ions into cells, a method for identifying P2X7R agonist was established by monitoring calcium influx into HT-22 cells. […] Calcium movement into the cells was visualised under a fluorescent microscope with a fluorescein filter (wavelength 492/517 nm). Oregon green AM ester is a fluorescent dye that binds to intracellular calcium.
Activation of P2X7R by the agonist was inhibited by oATP (FIG. 18) as illustrated by the absence of green fluorescence in the cells.

Take `Nc1ncnc2c1ncn2[C@@H](C=O)O[C@@H](C=O)COP(=O)(O)OP(=O)(O)OP(=O)(O)O` [oATP, Oxidized ATP]: the “number of fluorescent cells after antagonist pre-incubation” value at P2X7R [1] was “reduction in the number of fluorescent cells”. Besides, the “locomotor activity (overall distance travelled)” value in the data set on mice is “No difference in locomotor activity”. In the data set on DBA/201a mice, the “active escape attempts (time, frequency, latency of struggling)” value is listed as “no changes” and the “passive behaviour (time, frequency, latency of floating)” value is listed as “no changes”. In addition, the “activation of P2X7R by the agonist (calcium influx) after antagonist pre-treatment” value at P2X7R [2] is reported as “inhibited”.
